Laboratory results reported in paper PMC11285368, “Chasing Red Herrings: Palladium Metal Salt Impurities Feigning KRAS Activity in Biochemical Assays” (Journal of Medicinal Chemistry, 2024).

How the values were obtained:
Format in all cases: biochemical
FKBP51 = target: T1, FKBP51 (Homo sapiens, UniProt Q13451); experiment: FKBP51 AlphaScreen, Target #1
T1 sequence (Q13451 1-457): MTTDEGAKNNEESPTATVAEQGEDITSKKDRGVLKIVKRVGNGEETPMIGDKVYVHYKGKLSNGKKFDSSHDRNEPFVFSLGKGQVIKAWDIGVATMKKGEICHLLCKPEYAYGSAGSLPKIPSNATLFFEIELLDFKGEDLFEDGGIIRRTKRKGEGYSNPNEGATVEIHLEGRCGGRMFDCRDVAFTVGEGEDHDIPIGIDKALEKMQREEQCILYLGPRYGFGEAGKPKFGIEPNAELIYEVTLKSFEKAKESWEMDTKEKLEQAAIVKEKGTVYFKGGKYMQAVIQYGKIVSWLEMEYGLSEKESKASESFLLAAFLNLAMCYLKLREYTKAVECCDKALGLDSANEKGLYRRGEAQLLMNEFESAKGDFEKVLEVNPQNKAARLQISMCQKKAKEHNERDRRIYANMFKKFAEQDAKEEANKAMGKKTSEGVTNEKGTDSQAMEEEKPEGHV
Procedure: (§1) Metal salt solutions for the metal ion interference set (MIIS) were prepared as 10 mM stock solutions in DMSO (see Table 3). All metal salts used have been purchased at highest industrial grade.

off-target [1] = experiment: FKBP51 AlphaScreen, Target #2
Procedure: as §1

KRAS GDP = experiment: KRAS AlphaScreen, Target #1
Procedure: as §1

KRAS GTP = KRAS GTP (Homo sapiens, UniProt P01116, G12D); experiment: KRAS AlphaScreen, Target #2
Chain of KRAS GTP (P01116 1-169 isoform P01116-2 G12D): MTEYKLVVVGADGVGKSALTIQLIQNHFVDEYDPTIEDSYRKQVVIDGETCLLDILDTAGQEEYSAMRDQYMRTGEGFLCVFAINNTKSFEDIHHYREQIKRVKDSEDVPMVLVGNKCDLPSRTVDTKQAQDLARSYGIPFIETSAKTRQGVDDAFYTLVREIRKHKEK
Procedure: as §1

MDM2 = MDM2 (Homo sapiens, UniProt Q00987); experiment: MDM2 AlphaScreen, Target #1
Chain of MDM2 (Q00987 whole entry, species assumed): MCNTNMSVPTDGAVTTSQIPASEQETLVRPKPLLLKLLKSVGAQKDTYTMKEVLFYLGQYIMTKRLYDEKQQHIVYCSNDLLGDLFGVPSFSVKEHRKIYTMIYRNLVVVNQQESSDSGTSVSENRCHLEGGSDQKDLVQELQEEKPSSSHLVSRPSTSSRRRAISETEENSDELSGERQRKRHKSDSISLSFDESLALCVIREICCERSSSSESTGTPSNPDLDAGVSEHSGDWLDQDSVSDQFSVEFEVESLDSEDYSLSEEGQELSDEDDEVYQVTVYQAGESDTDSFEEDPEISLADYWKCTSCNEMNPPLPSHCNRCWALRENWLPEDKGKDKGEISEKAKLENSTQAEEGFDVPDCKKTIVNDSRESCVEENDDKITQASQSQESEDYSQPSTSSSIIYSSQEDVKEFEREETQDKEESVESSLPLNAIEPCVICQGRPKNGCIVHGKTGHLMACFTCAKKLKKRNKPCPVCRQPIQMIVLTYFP
Procedure: as §1

WRN (int.) = WRN (int.) (Homo sapiens, UniProt Q14191); experiment: WRN ADP-Glo, Target #1
Chain of WRN (int.) (Q14191 whole entry, species assumed): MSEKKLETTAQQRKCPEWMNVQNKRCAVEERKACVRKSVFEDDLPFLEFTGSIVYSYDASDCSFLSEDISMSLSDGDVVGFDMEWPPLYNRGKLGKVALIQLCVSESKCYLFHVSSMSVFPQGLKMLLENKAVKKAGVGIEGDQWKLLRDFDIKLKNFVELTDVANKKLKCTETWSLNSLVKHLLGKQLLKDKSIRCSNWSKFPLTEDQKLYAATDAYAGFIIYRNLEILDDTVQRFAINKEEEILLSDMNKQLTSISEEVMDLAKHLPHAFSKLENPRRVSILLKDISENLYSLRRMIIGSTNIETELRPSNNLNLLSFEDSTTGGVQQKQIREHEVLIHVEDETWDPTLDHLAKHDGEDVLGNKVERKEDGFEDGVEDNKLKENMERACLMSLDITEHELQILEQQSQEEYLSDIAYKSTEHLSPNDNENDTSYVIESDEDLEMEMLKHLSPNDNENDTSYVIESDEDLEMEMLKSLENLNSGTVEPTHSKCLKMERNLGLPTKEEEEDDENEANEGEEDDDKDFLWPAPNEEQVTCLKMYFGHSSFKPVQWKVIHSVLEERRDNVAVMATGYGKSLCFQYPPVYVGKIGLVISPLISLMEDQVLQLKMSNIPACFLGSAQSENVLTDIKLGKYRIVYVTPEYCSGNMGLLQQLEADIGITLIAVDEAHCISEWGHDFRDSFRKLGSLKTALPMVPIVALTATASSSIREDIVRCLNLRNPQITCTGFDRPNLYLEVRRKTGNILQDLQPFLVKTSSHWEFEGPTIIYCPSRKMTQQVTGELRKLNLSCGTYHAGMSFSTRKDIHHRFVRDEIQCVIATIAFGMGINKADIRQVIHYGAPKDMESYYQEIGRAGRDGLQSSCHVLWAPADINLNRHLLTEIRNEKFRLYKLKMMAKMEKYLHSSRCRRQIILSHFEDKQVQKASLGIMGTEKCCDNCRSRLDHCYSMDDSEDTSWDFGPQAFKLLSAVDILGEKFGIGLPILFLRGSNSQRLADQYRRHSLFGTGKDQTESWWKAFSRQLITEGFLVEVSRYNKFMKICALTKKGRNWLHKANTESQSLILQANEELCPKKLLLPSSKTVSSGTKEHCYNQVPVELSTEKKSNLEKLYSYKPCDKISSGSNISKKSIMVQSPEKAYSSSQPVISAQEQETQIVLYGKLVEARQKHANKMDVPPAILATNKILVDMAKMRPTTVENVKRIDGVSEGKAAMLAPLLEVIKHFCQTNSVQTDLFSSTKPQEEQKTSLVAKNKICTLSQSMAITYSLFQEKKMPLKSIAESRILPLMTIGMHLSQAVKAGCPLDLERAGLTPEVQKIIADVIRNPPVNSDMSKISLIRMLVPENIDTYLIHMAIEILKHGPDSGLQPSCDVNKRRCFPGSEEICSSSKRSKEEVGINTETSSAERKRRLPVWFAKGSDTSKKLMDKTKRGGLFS
Procedure: as §1

off-target (int.) = experiment: WRN ADP-Glo, Target #3
Procedure: as §1

NSD3 = target: T2, NSD3 (Homo sapiens, UniProt Q9BZ95); experiment: NSD3 TR-FRET; details: read-out: Target #1 IC50
T2 sequence (Q9BZ95 1-1437): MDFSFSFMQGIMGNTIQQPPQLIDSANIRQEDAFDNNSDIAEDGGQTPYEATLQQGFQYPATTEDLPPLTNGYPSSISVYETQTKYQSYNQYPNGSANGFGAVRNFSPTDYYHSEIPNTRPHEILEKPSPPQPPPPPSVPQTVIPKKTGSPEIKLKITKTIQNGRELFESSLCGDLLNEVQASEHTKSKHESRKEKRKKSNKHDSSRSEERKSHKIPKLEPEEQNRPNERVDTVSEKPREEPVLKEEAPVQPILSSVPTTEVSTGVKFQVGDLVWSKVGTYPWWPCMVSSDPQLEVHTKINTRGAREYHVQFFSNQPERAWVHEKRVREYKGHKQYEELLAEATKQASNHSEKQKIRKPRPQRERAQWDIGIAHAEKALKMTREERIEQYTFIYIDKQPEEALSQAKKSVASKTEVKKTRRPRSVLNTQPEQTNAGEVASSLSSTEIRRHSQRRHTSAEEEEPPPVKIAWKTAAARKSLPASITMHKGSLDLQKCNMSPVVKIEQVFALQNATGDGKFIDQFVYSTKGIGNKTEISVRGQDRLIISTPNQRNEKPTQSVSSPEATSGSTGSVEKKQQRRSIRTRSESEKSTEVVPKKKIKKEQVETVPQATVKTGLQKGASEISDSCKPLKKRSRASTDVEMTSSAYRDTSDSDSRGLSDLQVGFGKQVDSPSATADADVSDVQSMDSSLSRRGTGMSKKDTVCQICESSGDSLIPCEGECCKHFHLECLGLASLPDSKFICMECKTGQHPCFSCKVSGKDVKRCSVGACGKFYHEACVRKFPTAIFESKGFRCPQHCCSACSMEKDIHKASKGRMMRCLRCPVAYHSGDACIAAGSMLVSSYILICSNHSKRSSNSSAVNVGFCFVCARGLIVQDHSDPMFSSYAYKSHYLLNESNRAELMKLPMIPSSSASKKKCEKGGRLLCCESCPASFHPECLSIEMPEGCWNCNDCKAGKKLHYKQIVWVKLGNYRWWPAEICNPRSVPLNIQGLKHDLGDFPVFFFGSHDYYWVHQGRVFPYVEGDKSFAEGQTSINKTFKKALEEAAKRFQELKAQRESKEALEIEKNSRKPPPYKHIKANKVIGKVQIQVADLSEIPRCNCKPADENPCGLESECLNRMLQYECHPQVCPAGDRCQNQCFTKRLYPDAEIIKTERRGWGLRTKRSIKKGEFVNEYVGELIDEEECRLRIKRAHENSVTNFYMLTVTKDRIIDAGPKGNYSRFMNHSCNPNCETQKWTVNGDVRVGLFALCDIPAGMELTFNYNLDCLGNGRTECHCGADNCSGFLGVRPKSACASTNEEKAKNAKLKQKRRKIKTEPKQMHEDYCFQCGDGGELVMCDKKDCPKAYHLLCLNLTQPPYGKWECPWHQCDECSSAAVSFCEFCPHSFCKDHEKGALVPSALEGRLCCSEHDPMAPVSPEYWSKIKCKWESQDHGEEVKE
Procedure: as §1

UPAR = UPAR (Homo sapiens, UniProt Q03405); experiment: UPA-UPAR AlphaScreen, Target #1
Chain of UPAR (Q03405 23-305 limits assumed, species assumed): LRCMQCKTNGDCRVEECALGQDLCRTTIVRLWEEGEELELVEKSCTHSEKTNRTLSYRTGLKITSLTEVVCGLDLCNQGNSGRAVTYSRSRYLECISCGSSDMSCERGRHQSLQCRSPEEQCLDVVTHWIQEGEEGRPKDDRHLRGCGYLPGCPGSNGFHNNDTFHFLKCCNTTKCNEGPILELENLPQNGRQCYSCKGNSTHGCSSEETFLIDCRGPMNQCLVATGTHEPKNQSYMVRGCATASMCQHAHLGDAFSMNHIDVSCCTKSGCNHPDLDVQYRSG
Procedure: as §1

off-target [2] = experiment: UPA-UPAR AlphaScreen, Target #2
Procedure: as §1

SMILES | IC50 (FKBP51) [µM] | IC50 (off-target [1]) [µM] | IC50 (KRAS GDP) [µM] | IC50 (KRAS GTP) [µM] | IC50 (MDM2) [µM] | IC50 (WRN (int.)) [µM] | IC50 (off-target (int.)) [µM] | IC50 (NSD3) [µM] | IC50 (UPAR) [µM] | IC50 (off-target [2]) [µM]
CC(=O)[O-].[Ag+] [Ag (CH 3COO), Silver acetate] | > 10 | > 10 | > 10 | > 10 | > 10 | > 10 | > 10 | 1 to 10 |  | 
O=[N+]([O-])[O-].O=[N+]([O-])[O-].O=[N+]([O-])[O-].[Al+3] [Al(NO3)3, Aluminum nitrate] | < 1 | 1 to 10 | > 10 | > 10 | > 10 | > 10 | 1 to 10 | > 10 | > 10 | > 10
[Cl][Au]([Cl])[Cl] [AuCl3, Gold(III) chloride] | > 10 | > 10 | 1 to 10 | 1 to 10 | > 10 | > 10 | > 10 | < 1 | 1 to 10 | 1 to 10
[Cl-].[Cl-].[Co+2] [CoCl2, Cobalt(II) chloride] | > 10 | > 10 | > 10 | > 10 | > 10 | > 10 | > 10 | > 10 | 1 to 10 | > 10
[Cl][Cu][Cl] [CuCl2, Copper(II) chloride] | > 10 | > 10 | > 10 | > 10 | > 10 | > 10 | > 10 | > 10 | < 1 | > 10
[Cl][Fe][Cl] [FeCl2, Iron(II) chloride] | > 10 | > 10 | 1 to 10 | 1 to 10 | > 10 | > 10 | > 10 | > 10 | > 10 | > 10
[Cl][Fe]([Cl])[Cl] [FeCl3, Iron(III) chloride] | > 10 | > 10 | 1 to 10 | 1 to 10 | > 10 | > 10 | > 10 | > 10 | > 10 | > 10
[Cl-].[Cl-].[Mg+2] [MgCl2, Magnesium chloride] | > 10 | > 10 | > 10 | 1 to 10 | > 10 | > 10 | > 10 | > 10 | > 10 | > 10
[Cl][Mn][Cl] [MnCl2, Manganese(II) chloride] | > 10 | > 10 | > 10 | > 10 | > 10 | > 10 | > 10 | > 10 | > 10 | > 10
[Cl][Ni][Cl] [NiCl2, Nickel(II) chloride] | > 10 | > 10 | > 10 | > 10 | > 10 | > 10 | > 10 | > 10 | < 1 | > 10
[Cl][Pd][Cl] [PdCl2, Palladium(II) chloride] | > 10 | > 10 | < 1 | < 1 | > 10 | < 1 | < 1 | > 10 | < 1 | < 1
[Cl][Sn][Cl] [SnCl2, Tin(II) chloride] | 1 to 10 | > 10 | > 10 | 1 to 10 | > 10 | > 10 | > 10 | < 1 | > 10 | > 10
[Cl-].[Cl-].[Zn+2] [ZnCl2, Zinc(II) chloride] | > 10 | > 10 | > 10 | > 10 | > 10 | 1 to 10 | > 10 | > 10 | < 1 | > 10
